In patent US10759812B2, “Thienopyrimidine derivative and use thereof in medicine” (SUNSHINE LAKE PHARMA CO., LTD., priority 2017, dated 2020):

What was measured:
[1] = target: ACC1 (Homo sapiens (Human), UniProt Q13085); assay: Acetyl-CoA carboxylase inhibition activity assay in vitro (ADP-Glo kinase assay), ACC1; format: biochemical; conditions: 1 nM ACC1, 5% DMSO, 25° C.
Description: (§1) The inhibitory action of the compounds against ACC1 or ACC2 was determined by using ADP-Clo™ kinase assay kit from Promega. The ADP-Glo™ Kinase Assay is a luminescent ADP detection assay to measure enzymatic activity by quantifying the amount of ADP produced during an enzyme reaction. The assay is performed in two steps; first, after the enzyme reaction, an equal volume of ADP-Glo™ Reagent is added to terminate the reaction and deplete the remaining ATP. Second, the Kinase Detection Reagent is added to simultaneously convert ADP to ATP and allow the newly synthesized ATP to be measured using a luciferase/luciferin reaction. Luminescence can be correlated to ADP concentrations by using an ATP-to-ADP conversion curve.
(§2) The detailed procedure is as follows. • a. 4.5 μL/well of ACC1/ACC2 working solution (2.22 nM) was added to a 384-well reaction plate (PerkinElmer, 6007290). • b. The compound (10 mM) was diluted with 100% DMSO 500 times to a concentration of 20 μM, the dilute compound solution was diluted 1:3 in succession in a 384-well dilution plate (3657, corning) to gradient concentrations of 20, 6.67, 2.22, 0.74, 0.25, 0.082, 0.027, 0.009, 0.003, 0.001, 0 μM; • c. 0.5 μL/well of the compound solution (prepared in step b) was added to the 384-well reaction plate (prepared in step a), the plate was centrifuged at 1000 rpm and incubated at 25° C. for 15 minutes; • d. 0.5 μL/well of substrate mixture (ATP (10 mM), Acetyl-CoA (2 mM), NaHCO3 (1000 mM)) was transfered into the 384-well reaction plate, the plate was centrifuged at 1000 rpm and incubated at 25° C. for 30 minutes. The compound final gradient concentrations in the reaction system were 1000, 333.3, 111.1, 37.04, 12.35, 4.12, 1.37, 0.46, 0.15, 0.05, 0 nM. The final concentration of DMSO was 5%; the final concentration of ACC1/ACC2 is 1 nM. • e. 10 μL/well of ADP-Glo solution was transfered into the 384-well reaction plate, the plate was centrifuged at 1000 rpm and incubated at 25° C. for 40 minutes. • f. 20 µL/well of kinase detection reagent was transfered into the 384-well reaction plate, the plate was centrifuged at 1000 rpm and incubated at 25° C. for 40 minutes. • g. Relative Light Units (RLU) was read on an Envision multifunction plate reader. The signal intensity represents the level of ACC1/ACC2 kinase activity.
(§3) The ACC1/ACC2 working solution, substrate mixture, ADP-Glo solution and kinase detection reagent used in the assay are all prepared by using 1× kinase reaction buffer [hydroxyethylpiperazineethanesulfonic acid (HEPES, 50 mM), MgCl2 (2 mM), lauryl polyglycol ether (BRIJ-35, 0.01%), potassium citrate (2 mM), bovine serum albumin (BSA, 50 μg/mL), dithiothreitol (DTT, 2 mM)].
(§4) Data for each concentration, as well as the positive and negative controls were averaged, and the standard deviation was calculated. Percent inhibition was calculated by the formula: 100×(average negative control−compound)/(average negative control−average positive control). The IC50 for each compound was calculated by fitting the data with a nonlinear regression equation: Y=Bottom+(Top−Bottom)/(1+10^((Log IC50−X)×HillSlope)), where X is the log of compound concentration and Y is percent inhibition. 0.1 μM ND-630 was as positive control in the assay.

[2] = target: ACC2 (Homo sapiens (Human), UniProt O00763); assay: Acetyl-CoA carboxylase inhibition activity assay in vitro (ADP-Glo kinase assay), ACC2; format: biochemical; conditions: 1 nM ACC2, 5% DMSO, 25° C.
Description: as §1, §2, §3, §4

ACC2, sequence (O00763 whole entry, species assumed): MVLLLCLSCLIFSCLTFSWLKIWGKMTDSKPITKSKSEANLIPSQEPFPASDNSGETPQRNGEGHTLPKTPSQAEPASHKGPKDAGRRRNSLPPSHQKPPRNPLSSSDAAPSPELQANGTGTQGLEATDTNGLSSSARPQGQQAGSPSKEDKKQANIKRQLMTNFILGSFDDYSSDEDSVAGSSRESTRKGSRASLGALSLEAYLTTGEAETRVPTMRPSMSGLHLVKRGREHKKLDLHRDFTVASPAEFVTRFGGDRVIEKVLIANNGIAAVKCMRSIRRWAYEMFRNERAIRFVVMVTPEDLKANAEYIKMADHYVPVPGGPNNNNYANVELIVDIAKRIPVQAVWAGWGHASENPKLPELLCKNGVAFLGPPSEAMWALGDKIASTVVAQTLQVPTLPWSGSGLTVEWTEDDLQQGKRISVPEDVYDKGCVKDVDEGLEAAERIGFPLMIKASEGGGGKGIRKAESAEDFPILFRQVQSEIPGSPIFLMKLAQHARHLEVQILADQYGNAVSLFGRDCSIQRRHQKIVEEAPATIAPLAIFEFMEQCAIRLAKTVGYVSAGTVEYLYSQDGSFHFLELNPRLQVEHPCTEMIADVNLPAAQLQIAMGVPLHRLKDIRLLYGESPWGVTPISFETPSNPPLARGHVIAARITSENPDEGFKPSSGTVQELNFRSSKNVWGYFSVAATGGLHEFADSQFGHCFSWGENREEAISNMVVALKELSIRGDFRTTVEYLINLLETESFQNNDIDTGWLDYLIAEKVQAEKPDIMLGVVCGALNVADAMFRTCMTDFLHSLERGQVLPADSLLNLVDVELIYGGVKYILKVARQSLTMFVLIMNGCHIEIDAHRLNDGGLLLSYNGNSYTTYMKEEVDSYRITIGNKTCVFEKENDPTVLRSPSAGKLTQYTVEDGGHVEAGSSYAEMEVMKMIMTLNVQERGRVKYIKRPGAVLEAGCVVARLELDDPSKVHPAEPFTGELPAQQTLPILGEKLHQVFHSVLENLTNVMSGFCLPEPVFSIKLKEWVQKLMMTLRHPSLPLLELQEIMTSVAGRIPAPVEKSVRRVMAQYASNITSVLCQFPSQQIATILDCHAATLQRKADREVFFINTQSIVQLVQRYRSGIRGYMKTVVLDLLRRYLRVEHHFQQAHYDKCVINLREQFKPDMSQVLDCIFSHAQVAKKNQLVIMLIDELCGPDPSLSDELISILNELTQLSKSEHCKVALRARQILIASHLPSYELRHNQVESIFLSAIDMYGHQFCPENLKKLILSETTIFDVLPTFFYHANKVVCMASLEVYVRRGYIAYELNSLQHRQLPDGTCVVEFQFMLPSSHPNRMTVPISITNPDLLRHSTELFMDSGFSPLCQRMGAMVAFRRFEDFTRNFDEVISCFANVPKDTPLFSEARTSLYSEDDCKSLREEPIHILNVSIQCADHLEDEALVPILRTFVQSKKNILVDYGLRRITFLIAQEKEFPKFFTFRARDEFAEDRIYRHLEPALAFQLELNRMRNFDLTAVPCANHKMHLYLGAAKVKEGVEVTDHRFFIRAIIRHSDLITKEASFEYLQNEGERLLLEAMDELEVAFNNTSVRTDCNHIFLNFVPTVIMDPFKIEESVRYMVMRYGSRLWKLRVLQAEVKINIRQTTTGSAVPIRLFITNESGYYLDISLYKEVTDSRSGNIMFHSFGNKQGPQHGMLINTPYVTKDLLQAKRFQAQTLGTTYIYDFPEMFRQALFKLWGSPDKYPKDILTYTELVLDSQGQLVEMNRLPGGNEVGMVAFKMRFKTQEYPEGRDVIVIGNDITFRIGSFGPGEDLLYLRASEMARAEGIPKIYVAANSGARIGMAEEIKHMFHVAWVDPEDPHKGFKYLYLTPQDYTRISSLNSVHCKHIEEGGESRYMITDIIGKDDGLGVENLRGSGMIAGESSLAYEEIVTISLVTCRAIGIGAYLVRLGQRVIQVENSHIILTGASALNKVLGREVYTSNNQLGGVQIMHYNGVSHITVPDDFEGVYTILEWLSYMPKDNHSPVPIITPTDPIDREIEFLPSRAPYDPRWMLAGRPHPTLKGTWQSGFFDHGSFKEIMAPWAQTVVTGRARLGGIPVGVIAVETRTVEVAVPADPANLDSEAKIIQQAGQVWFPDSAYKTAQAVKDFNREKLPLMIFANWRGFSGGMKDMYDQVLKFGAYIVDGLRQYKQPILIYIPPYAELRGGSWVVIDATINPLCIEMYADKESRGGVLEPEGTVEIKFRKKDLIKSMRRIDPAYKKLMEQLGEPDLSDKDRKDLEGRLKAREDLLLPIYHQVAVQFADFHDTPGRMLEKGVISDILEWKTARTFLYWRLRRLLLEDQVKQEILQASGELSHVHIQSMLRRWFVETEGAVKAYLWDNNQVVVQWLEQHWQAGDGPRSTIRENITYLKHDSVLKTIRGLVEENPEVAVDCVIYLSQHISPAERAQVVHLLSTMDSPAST

SMILES	IC50 [1] [nM]	IC50 [2] [nM]
COc1ccccc1C(Cn1c(=O)n(C(C)(C)C(=O)O)c(=O)c2c(C)c(-c3ncco3)sc21)O[C@H]1C[C@H]2C[C@@H](O)C[C@H]2C1 (stereo partly drawn) [Example 1, 2-[1-[2-[[(3aS,6aR)-5-hydroxy-1,2,3,3a,4,5,6,6a-octahydropentalen-2-yl]oxy]-2-(2-methoxyphenyl)ethyl]-5-methyl-6-oxazol-2-yl-2,4-dioxo-thieno[2,3-d]pyrimid-3-yl]-2-methyl-propanoic acid]	0.93	–
COc1ccccc1C(Cn1c(=O)n(C(C)(C)C(=O)O)c(=O)c2c(C)c(-c3ncco3)sc21)OC1CC2CN(S(C)(=O)=O)CC2C1 (centres unmarked) [Example 10, 2-[1-[2-(2-methoxyphenyl)-2-[(2-methylsulfonyl-3,3a,4,5,6,6a-hexahydro-1H-cyclopenteno[c]pyrrole-5-yl)oxy]ethyl]-5-methyl-6-oxazol-2-yl-2,4-dioxo-thieno[2,3-d]pyrimid-3-yl]-2-methyl-propanoic acid]	0.81	1.76
COc1ccccc1C(Cn1c(=O)n(C(C)(C)C(=O)O)c(=O)c2c(C)c(-c3ncco3)sc21)OC1CC2COCC2C1 (centres unmarked) [Example 13, 2-[1-[2-(3,3a,4,5,6,6a-hexahydro-1H-cyclopenteno[c]furan5-oxy)-2-(2-methoxyphenyl)ethyl)-5-methyl-6-oxazol-2-yl-2,4-dioxo-thieno[2,3-d]pyrimid-3-yl]-2-methyl-propanoic acid]	1.76	4.24
COc1ccccc1C(Cn1c(=O)n(C(C)(C)C(=O)O)c(=O)c2c(C)c(-c3ncco3)sc21)O[C@@H]1C[C@@H]2CC(C)(O)C[C@@H]2C1 (stereo partly drawn) [Example 14, 2-[1-[2-[[(3aR,6aS)-5-hydroxy-5-methyl-2,3,3a,4,6,6a-hexahydro-1H-pentalen-2-yl]oxy]-2-(2-methoxyphenyl)ethyl]-5-methyl-6-oxazol-2-yl-2,4-dioxo-thieno[2,3-d]pyrimid-3-yl]-2-methyl-propanoic acid]	1.43	–
COc1ccccc1C(Cn1c(=O)n(C(C)(C)C(=O)O)c(=O)c2c(C)c(-c3ncco3)sc21)O[C@H]1C[C@H]2CC(C#N)C[C@H]2C1 (some centres unmarked) [Example 15, 2-[1-[2-[(5-cyano-1,2,3,3a,4,5,6,6a-octahydropentalen-2-yl)oxy]-2-(2-methoxyphenyl)ethyl]-5-methyl-6-oxazol-2-yl-2,4-dioxo-thieno[2,3-d]pyrimid-3-yl]-2-methyl-propanoic acid]	1.64	6.53
COc1ccccc1C(Cn1c(=O)n(C(C)(C)C(=O)O)c(=O)c2c(C)c(-c3ncco3)sc21)O[C@H]1C[C@H]2C[C@H](F)C[C@H]2C1 (stereo partly drawn) [Example 17, 2-[1-[2-[[(3aR,6aS)-5-fluoro-1,2,3,3a,4,5,6,6a-octahydropentalen-2-yl]oxy]-2-(2-methoxyphenyl)ethyl)-5-methyl-6-oxazol-2-yl-2,4-dioxo-thieno[2,3-d]pyrimid-3-yl]-2-methyl-propanoic acid]	2.24	–
COc1ccccc1C(Cn1c(=O)n(C(C)(C)C(=O)O)c(=O)c2c(C)c(-c3ncco3)sc21)O[C@@H]1C[C@@H]2CC(O)(C(F)(F)F)C[C@@H]2C1 (stereo partly drawn) [Example 18, 2-[1-[2-[[(3aR,6aS)-5-hydroxy-5-(trifluoromethyl)-2,3,3a,4,6,6a-hexahydro-1H-pentalen-2-yl]oxy]-2-(2-methoxyphenyl)ethyl]-5-methyl-6-oxazol-2-yl-2,4-dioxo-thieno[2,3-d]pyrimid-3-yl]-2-methyl-propanoic acid]	0.89	–
CCC1(O)C[C@H]2C[C@@H](OC(Cn3c(=O)n(C(C)(C)C(=O)O)c(=O)c4c(C)c(-c5ncco5)sc43)c3ccccc3OC)C[C@H]2C1 (stereo partly drawn) [Example 19, 2-[1-[2-[[(3aR,6aS)-5-ethyl-5-hydroxy-2,3,3a,4,6,6a-hexahydro-1H-pentalen-2-yl]oxy]-2-(2-methoxyphenyl)ethyl)-5-methyl-6-oxazol-2-yl-2,4-dioxo-thieno[2,3-d]pyrimid-3-yl]-2-methyl-propanoic acid]	0.88	5.45
COc1ccccc1C(Cn1c(=O)n(C(C)(C)C(=O)O)c(=O)c2c(C)c(-c3ncco3)sc21)O[C@@H]1C[C@@H]2CC(F)(F)C[C@@H]2C1 (stereo partly drawn) [Example 21, 2-[1-[2-[[(3aR,6aS)-5,5-difluoro-2,3,3a,4,6,6a-hexahydro-1H-pentalen-2-yl]oxy]-2-(2-methoxyphenyl)ethyl)-5-methyl-6-oxazol-2-yl-2,4-dioxo-thieno[2,3-d]pyrimid-3-yl]-2-methyl-propanoic acid]	1.43	4.07

Further lines, results first:

IC50 [1] [nM]	IC50 [2] [nM]	SMILES
1.55	8.44	COc1ccccc1C(Cn1c(=O)n(C(C)(C)C(=O)O)c(=O)c2c(C)c(-c3ncco3)sc21)O[C@H]1C[C@H]2CC(O)C(O)[C@H]2C1 (stereo partly drawn) [Example 22, 2-[1-[2-[[(2S,3aS,6aR)-4,5-dihydroxy-1,2,3,3a,4,5,6,6a-octahydropentalen-2-yl]oxy]-2-(2-methoxyphenyl)ethyl]-5-methyl-6-oxazol-2-yl-2,4-dioxo-thieno[2,3-d]pyrimid-3-yl]-2-methyl-propanoic acid]
0.67	1.13	COc1ccccc1C(Cn1c(=O)n(C(C)(C)C(=O)O)c(=O)c2c(C)c(-c3ncco3)sc21)O[C@@H]1C[C@@H]2CC(O)(C3CC3)C[C@@H]2C1 (stereo partly drawn) [Example 23, 2-[1-[2-[[(3aR,6aS)-5-cyclopropyl-5-hydroxy-2,3,3a,4,6,6a-hexahydro-1H-pentalen-2-yl]oxy]-2-(2-methoxyphenyl)ethyl]-5-methyl-6-oxazol-2-yl-2,4-dioxo-thieno[2,3-d]pyrimid-3-yl]-2-methyl-propanoic acid]
1.43	5.4	COc1ccccc1C(Cn1c(=O)n(C(C)(C)C(=O)O)c(=O)c2c(C)c(-c3ncco3)sc21)O[C@@H]1C[C@@H]2CC(O)(C#N)C[C@@H]2C1 (stereo partly drawn) [Example 26, 2-[1-[2-[[(3aR,6aS)-5-cyano-5-hydroxy-2,3,3a,4,6,6a-hexahydro-1H-pentalen-2-yl]oxy]-2-(2-methoxyphenyl)ethyl]-5-methyl-6-oxazol-2-yl-2,4-dioxo-thieno[2,3-d]pyrimid-3-yl]-2-methyl-propanoic acid]
1.56	4.8	COc1ccccc1C(Cn1c(=O)n(C(C)(C)C(=O)O)c(=O)c2c(C)c(-c3ncco3)sc21)O[C@@H]1C[C@@H]2CC(O)(CC#N)C[C@@H]2C1 (stereo partly drawn) [Example 27, 2-[1-[2-[[(3aS,6aR)-5-(cyanomethyl)-5-hydroxy-2,3,3a,4,6,6a-hexahydro-1H-pentalen-2-yl]oxy]-2-(2-methoxyphenyl)ethyl]-5-methyl-6-oxazol-2-yl-2,4-dioxo-thieno[2,3-d]pyrimid-3-yl]-2-methyl-propanoic acid]
0.47	2.19	COc1ccccc1C(Cn1c(=O)n(C(C)(C)C(=O)O)c(=O)c2c(C)c(-c3ncco3)sc21)O[C@@H]1C[C@@H]2C[C@@H](S(C)(=O)=O)C[C@@H]2C1 (stereo partly drawn) [Example 29, 2-[1-[2-[[(3aR,6aS)-5-methylsulfonyl-1,2,3,3a,4,5,6,6a-octahydropentalen-2-yl]oxy]-2-(2-methoxyphenyl)ethyl]-5-methyl-6-oxazol-2-yl-2,4-dioxo-thieno[2,3-d]pyrimid-3-yl]-2-methyl-propanoic acid]
1.21	2.74	COc1ccccc1C(Cn1c(=O)n(C(C)(C)C(=O)O)c(=O)c2c(C)c(-c3ncco3)sc21)O[C@H]1C[C@H]2CO[C@@H](C1)O2 (some centres unmarked) [Example 32]
